The results in this text go back to ChEMBL document CHEMBL1201862, “PubChem BioAssay data set” (2004).

Some test systems named below: HCT-116; SNB-75; HOP-62; MDA-MB-231; NCI-H226; EKVX; IGROV-1; UACC-257; M14; BT-549; MCF7; TK-10; RPMI-8226; OVCAR-5; T47D; ACHN; SK-MEL-28; SK-MEL-2; HT-29; UACC-62.
Holding throughout (test): NCI-60 cell line screen, 48 h

SMILES strings stand for the structures.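 1) Cells in 96-well plates. 2) Compound, 48 h, 5 concentrations. 3) Linear interpolation between surrounding doses. 4) Unreached endpoint = highest concentration. Abbreviation: GI50, concentration required for 50% inhibition of growth.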 Active and inactive are the calls of the source. Rule as the data show it: active = GI50 up to about 1.1 µM and inactive = higher.

Take `COC(=O)C#CC1(O)C=CC(=O)C=C1`: the GI50 in the assay with HCT-116 was 0.256 µM (active); in the assay on SNB-75, 3.9 µM (inactive); with HOP-62, 4.72 µM (inactive); in the assay on MDA-MB-231 it was 2 µM (inactive); in the assay on NCI-H226, 5.07 µM (inactive); in the assay on EKVX, 4.12 µM (inactive). Moreover, the GI50 in the assay with IGROV-1 was 0.508 µM (active); with UACC-257, 1.15 µM (inactive); with M14, 1.25 µM (inactive); with BT-549, 1.01 µM (active); in the assay with MCF7, 0.352 µM (active); in the assay with TK-10 it was 1.18 µM (inactive). For the same molecule, the GI50 in the assay with RPMI-8226 is 0.687 µM (active); with OVCAR-5, 1.42 µM (inactive); with T47D, 0.583 µM (active); in the assay on ACHN, 0.571 µM (active); in the assay with SK-MEL-28, 0.579 µM (active); in the assay with SK-MEL-2, 2.36 µM (inactive). Further, the GI50 in the assay with HT-29 is 0.253 µM (active); in the assay with UACC-62, 0.865 µM (active).

Regarding `O=c1n(CC2CO2)c(=O)n(CC2CO2)c(=O)n1CC1CO1` (stereo not given) [TEROXIRONE], the GI50 in the assay on HCT-116 is 22.1 µM (inactive); in the assay on SNB-75, 25.1 µM (inactive); in the assay on HOP-62, 20.3 µM (inactive); in the assay on MDA-MB-231, 26.4 µM (inactive); in the assay on NCI-H226, 26.6 µM (inactive); in the assay with EKVX it was 96.2 µM (inactive). In addition, the GI50 was 39.2 µM (inactive) with IGROV-1; 32.7 µM (inactive) in the assay with UACC-257; 9.27 µM (inactive) in the assay with M14; 11.5 µM (inactive) in the assay on BT-549; 11.1 µM (inactive) with MCF7; 36.6 µM (inactive) with TK-10. Also, the GI50 in the assay with RPMI-8226 was 39.4 µM (inactive); in the assay with OVCAR-5 it was 67.8 µM (inactive); with T47D, 17.3 µM (inactive); with ACHN, 1.36 µM (inactive); with SK-MEL-28, 54.5 µM (inactive); in the assay on SK-MEL-2 it was 90.2 µM (inactive). Moreover, the GI50 in the assay with HT-29 was 13.9 µM (inactive); in the assay with UACC-62, 2.49 µM (inactive).

For `CCN(CC)C(=O)COc1cc2c(O)c3c(O)c(C)c4c(c13)C(=O)C(C)(OC=CC(OC)C(C)C(OC(C)=O)C(C)C(O)C(C)C(O)C(C)C=CC=C(C)C(=O)N2)O4` (stereo not given), the GI50 in the assay with HCT-116, in the assay with SNB-75, in the assay with HOP-62, in the assay on MDA-MB-231, in the assay with NCI-H226 and in the assay on EKVX was > 100 µM (inactive) each time. For the same molecule, the GI50 in the assay with IGROV-1, in the assay on UACC-257, in the assay with M14, with BT-549, in the assay with MCF7 and in the assay on TK-10 was > 100 µM (inactive) throughout. Besides, the GI50 in the assay with RPMI-8226 is 37.4 µM (inactive); in the assay on OVCAR-5 it was > 100 µM (inactive); in the assay on T47D it was > 100 µM (inactive); in the assay on ACHN, > 100 µM (inactive); in the assay with SK-MEL-28 it was > 100 µM (inactive); in the assay with SK-MEL-2 it was > 100 µM (inactive). In addition, the GI50 with HT-29 and in the assay on UACC-62 was > 100 µM (inactive) in each case.

For `CC(=O)Nc1cccc(N2C(=O)/C(=C\c3cccc(Oc4ccccc4)c3)S(=O)(=O)C2c2ccccc2)c1` (stereo not given), the GI50 with HCT-116 is 34.1 µM (inactive); in the assay on SNB-75, > 100 µM (inactive); in the assay with HOP-62, > 100 µM (inactive); in the assay on MDA-MB-231 it was > 100 µM (inactive); in the assay on NCI-H226 it was > 100 µM (inactive); with EKVX, 73.6 µM (inactive). Further, the GI50 is 50.7 µM (inactive) in the assay with IGROV-1; > 100 µM (inactive) with UACC-257; 90.6 µM (inactive) in the assay on M14; 69.8 µM (inactive) with BT-549; 34 µM (inactive) with MCF7; > 100 µM (inactive) with TK-10. Also, the GI50 in the assay with RPMI-8226 is 61.5 µM (inactive); in the assay with OVCAR-5, > 100 µM (inactive); with T47D it was 25 µM (inactive); in the assay on ACHN it was > 100 µM (inactive); with SK-MEL-28, > 100 µM (inactive); with SK-MEL-2, 55.6 µM (inactive). In addition, the GI50 is 64.9 µM (inactive) with HT-29 and 43.6 µM (inactive) with UACC-62.

For the molecule `O=C(CCc1ccc(O)c(O)c1)NCCc1cc(O)cc(OCc2ccccc2)c1`, the GI50 is 33.5 µM (inactive) with HCT-116; 15.6 µM (inactive) in the assay with SNB-75; 61.1 µM (inactive) in the assay with HOP-62; 27.2 µM (inactive) in the assay with MDA-MB-231; 58.7 µM (inactive) in the assay on NCI-H226; 53.5 µM (inactive) with EKVX. The GI50 in the assay on IGROV-1 was 39.1 µM (inactive); in the assay on UACC-257 it was > 100 µM (inactive); in the assay on M14 it was 32.1 µM (inactive); in the assay on BT-549, 10.6 µM (inactive); with MCF7, 26.9 µM (inactive); in the assay on TK-10, > 100 µM (inactive). The GI50 in the assay on RPMI-8226 is 9.04 µM (inactive); with OVCAR-5, 87.9 µM (inactive); with T47D, 15.3 µM (inactive); in the assay with ACHN it was 8.75 µM (inactive); in the assay with SK-MEL-28, 44.3 µM (inactive); with SK-MEL-2, 43.1 µM (inactive). Moreover, the GI50 in the assay with HT-29 is 38.9 µM (inactive); with UACC-62, 31.3 µM (inactive).
